Like-named read-outs stand apart in the source and are kept apart here.
Pramipexole Pamoate [Example 9]
crystalline form conversion (placed in the dry box at room temperature): converting into amorphous state

Pramipexole Pamoate [Example 8]
crystalline form conversion (upon standing at room temperature after 7 days): started converting into the crystalline form depicted in Example 7
